Source: US8071576B2, “Method of preventing or treating benign gynaecological disorders” (Pantarhei Bioscience B.V., priority 2001, dated 2011)

How the values were obtained:
endometrium [1] = assay: McPhail test: endometrial differentiation in estradiol-pretreated rabbits; format: in vivo; details: rabbits pretreated with 5 μg 17β-estradiol s.c. for 6 days; levonorgestrel 8 μg/day oral and/or testosterone 20 mg/day s.c. for 5 days; scores 0-4
Experimental: The effects on endometrium of the progestogen levonorgestrel and the androgen testosterone were determined in rabbits according to the method of McPhail (Mc Phail M. K. “The assay of progestin” J Physiol (1934), 83, 145-156). Four groups of each 5 rabbits were pretreated with daily subcutaneous dosages of 5 μg 17β-estradiol for 6 days.
After pretreatment, 3 groups either received levonorgestrel at an oral dose of 8 μg per day for 5 days, testosterone in a subcutaneous dose of 20 mg per day for 5 days, or levonorgestrel and testosterone together in the aforementioned routes and doses for 5 days. The fourth group was used as the negative control.
Autopsy was performed after the treatment period and the uterus was weighed and histological sections were prepared from each uterine horn and these were microscopically evaluated according to the McPhail Index (scores 0-4; 0=no differentiation; 4=maximal differentiation).

[2] = Clinical study: 17β-estradiol/norethisterone acetate with or without DHEA (Example 3); format: in vivo; details: 50 mg DHEA daily oral added to 3 mg 17β-estradiol and 1.5 mg norethisterone acetate for 104 days, versus women not receiving DHEA
Experimental: A clinical study is conducted in 100 healthy young women. […] Vaginal spotting and bleeding is scored daily by the participants in a diary. The effects on general well being are scored at baseline and at each study visit (every 5 weeks during study drug administration) using the psychometric rating scale described in example 2.
Ovulation inhibition is investigated by analysing pregnanediol samples twice a week during 4 weeks between week 7 and 14. In addition, endocrine measurements are performed in a subgroup of the participants (17β-estradiol, progesterone, total testosterone, LH, FSH and SHBG).

endometrium [3] = details: DHEA applied on the dorsal skin of ovariectomized rats, all time intervals; cited from earlier work
[4] = Clinical study: ethinyl estradiol/levonorgestrel with or without DHEA (Example 2); format: in vivo; details: 50 mg DHEA daily oral added to ethinyl estradiol/levonorgestrel for 104 days, versus women not receiving DHEA
Experimental: A clinical study is conducted in 200 healthy young women. […] Vaginal spotting and bleeding is scored daily by the participants in a diary and the effects on general well being are scored at baseline and at each study visit (every 5 weeks during study drug administration) on a psychometric rating scale. The psychometric rating scale used is especially suited for identifying differences in a population of healthy young women. The scale is a 24-item (placid, sleepy, jittery, intense, lacking confidence, energetic, sensitive, tired, well-balanced, at-rest, drowsy, fearful, lively, sickly, in a good mood, irritable, lethargic, quiet, full-of-pep, optimistic, moody, active, tense, sad), 4-point (yes, definitely; yes, a bit; no, in fact not; no, definitely not) scale to be scored by the person themself. In addition, endocrine measurements are performed in a subgroup of the participants (17β-estradiol, progesterone, total testosterone, LH, FSH and SHBG).

androgen receptors = target: T1, androgen receptors (Homo sapiens, UniProt P10275); details: precursors per se, in the female body; cited from earlier work
T1 sequence (P10275 1-920): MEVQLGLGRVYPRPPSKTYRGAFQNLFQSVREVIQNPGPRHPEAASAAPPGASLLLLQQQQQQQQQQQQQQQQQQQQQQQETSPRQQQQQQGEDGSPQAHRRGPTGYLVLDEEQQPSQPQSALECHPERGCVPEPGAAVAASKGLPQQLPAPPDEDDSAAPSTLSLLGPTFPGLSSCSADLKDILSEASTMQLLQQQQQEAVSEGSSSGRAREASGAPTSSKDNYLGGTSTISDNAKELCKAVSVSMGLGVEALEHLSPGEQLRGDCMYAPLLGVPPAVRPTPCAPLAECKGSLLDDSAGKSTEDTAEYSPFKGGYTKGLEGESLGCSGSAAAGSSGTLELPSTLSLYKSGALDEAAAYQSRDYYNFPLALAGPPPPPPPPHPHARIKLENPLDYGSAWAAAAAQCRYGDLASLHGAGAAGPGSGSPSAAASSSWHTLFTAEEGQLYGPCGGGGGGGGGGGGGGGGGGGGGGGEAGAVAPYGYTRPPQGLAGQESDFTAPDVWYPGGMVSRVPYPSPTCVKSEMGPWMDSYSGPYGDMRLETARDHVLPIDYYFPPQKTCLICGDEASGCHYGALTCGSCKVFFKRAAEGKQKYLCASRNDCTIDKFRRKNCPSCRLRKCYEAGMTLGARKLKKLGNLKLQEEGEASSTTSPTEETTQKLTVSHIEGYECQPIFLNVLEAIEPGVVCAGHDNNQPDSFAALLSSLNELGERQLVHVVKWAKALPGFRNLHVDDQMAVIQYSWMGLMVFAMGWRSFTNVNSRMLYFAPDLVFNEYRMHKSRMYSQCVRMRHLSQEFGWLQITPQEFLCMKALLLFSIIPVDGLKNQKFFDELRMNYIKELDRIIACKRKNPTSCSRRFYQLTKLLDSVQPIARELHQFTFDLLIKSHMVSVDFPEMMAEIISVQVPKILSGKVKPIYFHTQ

C[C@]12CC[C@H]3[C@@H](CCC4=CC(=O)CC[C@@]43C)[C@@H]1CC[C@@H]2O [testosterone]
McPhail index (endometrium [1]): 2.9±0.1

C#C[C@]1(O)CC[C@H]2[C@@H]3CCC4=CC(=O)CC[C@@H]4[C@H]3CC[C@@]21CC [levonorgestrel]
McPhail index (endometrium [1]): 2.1±0.4

C[C@]12CC[C@H](O)CC1=CC[C@@H]1[C@@H]2CC[C@]2(C)C(=O)CC[C@@H]12 [DHEA, dehydroepiandrosterone]
psychometric scores on items in the domain of energy [2]: generally better scores | side effects [2]: less side effects | vaginal breakthrough spotting and bleeding [2]: less vaginal breakthrough spotting and bleeding | state of the endometrium during DHEA treatment (endometrium [3]): remained atrophic | psychometric scores on items in the domain of energy [4]: generally better scores | side effects [4]: less side effects | vaginal breakthrough spotting and bleeding [4]: less vaginal breakthrough spotting and bleeding

CCCCCCCCCCC(=O)O[C@H]1CC[C@H]2[C@@H]3CCC4=CC(=O)CC[C@]4(C)[C@H]3CC[C@]12C [testosterone undecanoate]
affinity for the androgen receptors (androgen receptors): virtually no affinity
